Measured values taken from US8841083B2, “PSA capture agents, compositions, methods and preparation thereof” (California Institute of Technology, priority 2011, dated 2014).

What was measured:
free PSA [1] = target: T1, free PSA (Homo sapiens, UniProt P07288); assay: Dot blot of serially diluted free PSA probed with biotinylated capture agent; format: binding; conditions: for lower limit of detection: free PSA on nitrocellulose, 0.1 μM capture agent
T1 construct: purchased Scripps Laboratories P0725
Experimental: Serially diluted free PSA (Scripps Laboratories #P0725) in PBS pH 7.4 was applied to nitrocellulose by micropipette. The membrane was blocked at 4° C. for 2 hours in 5% non-fat dry milk in TBS (25 mM Tris, 150 mM NaCl, pH 7.25). The membrane was washed with TBS (3×). The biotinylated PSA capture agent was prepared at 0.1 μM in 0.5% milk in TBS+0.03% DMSO (v/v) and incubated over the membrane at 4° C. overnight. After washing with TBS (3×), the membrane was further subjected to 0.1 μg/mL HRP-conjugated Streptavidin (Abcam) in TBS containing 0.02% Tween20 (v/v) for 30 min at 4° C.

free PSA [2] = target: T1, free PSA; assay: Enzyme activity assay of PSA with chymotrypsin substrate Suc-Arg-Pro-Tyr-pNA; format: biochemical; conditions: for minimum peptide concentration affecting the activity: PSA 333 nM
Experimental: The enzyme activity of free PSA was studied in the presence of capture agent and the chymotrypsin substrate Suc-Arg-Pro-Tyr-pNA (AnaSpec, San Jose, Calif.) (see, e.g., Wu 2000). PSA (333 nM) was incubated with a 1-100-fold fold molar excess of capture agent in TBS (25 mM Tris, 150 mM NaCl) buffer, pH 7.8, for 1 hour at 23° C. Separately, the inhibitory effect of Zn^2+ on the enzyme activity of PSA was studied by including 1-200 μM ZnCl2 in the reaction buffer as a control. After addition of substrate to a final concentration 0.4 mM, the absorbance was monitored at 5-min intervals over 80 min at 405 nm on a Beckman Coulter DTX880 photometer (Brea, Calif.). Enzyme activity of PSA was tested in the absence of both Zn^2+ and capture agent to provide a measure of basal activity. All assays were performed in triplicate.

free PSA [3] = target: T1, free PSA; assay: Sandwich ELISA with capture agent as detection agent, paired with PS6 capture antibody; format: binding
Experimental: MAXISORP™ microtiter plates were coated with anti-human PSA (PS6, Abcam) at 10 μg/mL in PBS pH 7.4 for 2 hours at room temperature. After washing each microwell with PBS (3×), the plate was filled with 5% non-fat dry milk in TBS (25 mM Tris, 150 mM NaCl, pH 7.25) and blocked for 2 h at room temperature. Serially diluted free PSA (Scripps Laboratories #P0725) in 1% BSA in TBS was incubated across the microtiter plate for 2 h at room temperature. The plate was washed with 1% BSA in TBS (5×), and then 2 μM biotinylated capture agent in 1% BSA in TBS+0.1% DMSO (v/v) was incubated for 1 hour at room temperature. After washing all microwells with 1% BSA in TBS (5×), 0.1 μg/mL Streptavidin Poly-HRP conjugate (Pierce, Ill.) in 1% BSA in TBS was incubated for 30 min at room temperature. The plate was washed with 1% BSA in TBS (10×), followed by TBS (2×), and then developed by adding QuantaRed™ Enhanced Chemifluorescent HRP Substrate (Pierce, Ill.). Using an excitation wavelength of 535 nm, fluorescent emission at 595 nm was recorded by Beckman Coulter DTX880 photometer (Brea, Calif.) as a function of target concentration. The titration curves were fit using a four-parameter regression curve fitting program (Origin 8.5, Northampton, Mass.). Assays were performed in triplicate.

free PSA [4] = target: T1, free PSA; assay: Pull-down assay and Western blot; format: binding; conditions: 1 μg free PSA in TBS buffer
Experimental: The pull-down assay assessed the specificity of a PSA capture agent by measuring its ability to purify a protein from complex media; bound to the protein in buffer or human serum in solution. The PSA/capture agent complex was then physically isolated from the sample with solid-phase affinity resins. The captured samples were separated by SDS-PAGE for Western blot analysis.
Pull-down detection of PSA was performed using a modified immunoprecipitation technique that incorporated PSA capture agent rather than antibody. […] A third sample contained biotinylated PSA capture agent (0.3-0.5 μg/mL) and 1 μg free PSA in 2 mL TBS, and similarly interacted at 4° C. overnight.
Proteins were captured by BSA-blocked Dynabeads® M-280 Streptavidin (Invitrogen, #112-05D) under rotation at 4° C. for 4 hours (50 μL of 50% slurry per pull-down condition). Proteins were eluted from beads in reducing Laemmli buffer, and beads were separated from the serum or buffer by DynaMag™-Spin magnet (Invitrogen, #123-20D). Samples were subjected to 4-20% SDS-PAGE separation and electrophoretically transferred to a nitrocellulose membrane in 25 mM Tris, 192 mM Glycine, pH 8.3, containing 20% (v/v) methanol (Bio-Rad Laboratories, Hercules, Calif.) at 100 V for 45 min. Following transfer, the nitrocellulose membrane was blocked at 4° C. for 2 hours in 5% non-fat dry milk in TBS. […]

T1 sequence (P07288 25-261): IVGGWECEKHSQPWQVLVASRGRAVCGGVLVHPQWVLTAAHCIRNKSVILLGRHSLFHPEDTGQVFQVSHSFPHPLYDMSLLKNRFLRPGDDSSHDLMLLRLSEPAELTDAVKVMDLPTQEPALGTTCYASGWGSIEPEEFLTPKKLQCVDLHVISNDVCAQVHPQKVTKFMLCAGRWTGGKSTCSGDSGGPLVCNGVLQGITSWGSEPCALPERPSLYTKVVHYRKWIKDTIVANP

biotin-PEG5-cyclic(CVFAHNYDYLVC)-Tz-4-Gllffk [1,4Tz-biligand]
lower limit of detection (free PSA [1]): 0.28 µg

biotin-PEG5-cyclic(CVFAHNYDYLVC) [Anchor Ligand]
minimum peptide concentration affecting the activity (free PSA [2]): 0.250 µM

biotin-PEG5-cyclic(CVFAHNYDYLVC)-Tz5-Gllffk-Tz5-rrivk [PSA capture agent triligand]
limit of quantitation (LOQ) (free PSA [3]; free PSA, sandwich ELISA with PS6 capture antibody): ~4 ng/mL | enhanced sensitivity over the PSA capture agent biligand (free PSA [3]; sandwich ELISA): > 2 fold | performance compared to anti-human PSA monoclonal antibody PS1 (free PSA [1]; dot blot): superior performance | sensitivity compared to commercial PSA monoclonal antibodies PS2, PS6 (free PSA [1]; dot blot): less sensitive | lower limit of detection (free PSA [1]): 0.14 µg | pull-down detection of free PSA (free PSA [4]): detected free PSA in buffer

[Cl-].[Cl-].[Zn+2] [Zn^2+, zinc chloride, reference compound]
inhibition of PSA enzyme activity (free PSA [2]): inhibits the enzyme activity of PSA

biotin-PEG5-cyclic(CVFAHNYDYLVC)-Tz5-Gllffk [1,5Tz-biligand]
limit of detection compared to 1,4Tz-biligand (free PSA [1]; dot blot, triazole regioisomers): improved limit of detection | lower limit of detection (free PSA [1]): 0.14 µg | minimum peptide concentration affecting the activity (free PSA [2]): 0.159 µM
